Source: PubChem BioAssay (NCI)
Several values for one entry are separate records, joined by “and”; a condition that tells them apart may be missing. Identical values can stand only once.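 Each compound was tested at five concentrations against cells in 96-well plates for 48 hours. Abbreviation: GI50, concentration required for 50% inhibition of growth. The concentration for full growth arrest is given as TGI.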

Test system: MDA-MB-468 breast
Experiment: DTP human tumour cell line panel, 48 h

SMILES	GI50	TGI
N=C(N)c1ccc(-c2ccc(-c3ccc(F)cc3)o2)o1	1.36 µM	3 µM
COc1cc2ncn(-c3cc(OCc4ccccc4S(C)(=O)=O)c(C#N)s3)c2cc1OC	> 25 µM	> 25 µM
Oc1cc(Cl)ccc1Cc1ccc(Cl)cc1O	11.7 µM	35.5 µM
CC(C)CCC[C@@H](C)[C@H]1CCC2C3=CCC4C(=O)C=CC(=O)C4C3CC[C@@]21C (stereo not given in full)	0.215 µM	0.57 µM
CC(=O)NC1=CC(=O)c2cc(C)cc(O)c2C1=O	1.87 µM	5.98 µM
CCCn1cnc2c(c1=N)C(c1ccc(OC)cc1)c1sc3c(C)cccc3c1O2 (stereo not given)	0.36 µM	13.4 µM
CCC(=O)c1ccc2c(c1)N(CCCN1CCN(CCO)CC1)c1ccccc1S2	10.5 µM	23.5 µM
CCCCCCN1CCN(Cc2ccc(N(CC)CC)cc2)C(=O)C1=O	1.59 µM	16.1 µM
Nc1nc(-c2cccc([N+](=O)[O-])c2)c(N=Nc2ccc([N+](=O)[O-])cc2Cl)s1	0.131 µM	0.711 µM
Cc1cc(C)c2c(N)c3cccc(C)c3nc2n1	1.28 µM	3.37 µM
COc1ccc2[nH]cc(-c3nc(-c4c[nH]c5ccncc45)cs3)c2c1	1.78 µM	3.67 µM
COc1ccc(-c2nc3sc4c(c3c(=O)[nH]2)CCCC4)c2ccccc12	1.42 µM	5.55 µM and 8.96 µM
C[C@@H]1COC(Nc2ccc3ncnc(Nc4ccc(OCc5nccs5)c(Cl)c4)c3c2)=N1	0.181 µM and 0.0396 µM	1.59 µM and 0.294 µM
COC1[C@@H]2C[C@H]3C(C)(C)O[C@@](C/C=C(/C)C(=O)O)(C2=O)[C@]32Oc3c(CC=C(C)C)c4c(c(O)c3C(=O)[C@H]12)C=CC(C)(C)O4 (stereo not given in full)	7.46 µM	25 µM
C=C(C)[C@@H]1CC[C@]2(C(=O)NCCNCCNCCN)CC[C@]3(C)[C@H](CC[C@@H]4[C@@]5(C)CCC(=O)C(C)(C)[C@@H]5CC[C@]43C)[C@@H]12	8.09 µM	16.1 µM
Cc1ccc(F)cc1NC(=O)c1cc(Cl)ccc1Nc1ccccc1	> 100 µM	> 100 µM
O=C1OCC2=C1C(c1cccc(C(F)(F)F)c1)c1cc3c(cc1N2CCO)CCC3 (stereo not given)	0.127 µM	1.2 µM
N/C(=N\c1nc2ccccc2s1)NC(=O)Nc1cccc2ccccc12	0.372 µM	22.7 µM
CCCCCCCCCCCCCCCCn1cc[n+](Cc2ccccc2)c1C	0.305 µM	0.84 µM
COC(=O)[C@@H]1CCCN1C(=O)[C@H]1CCCN1C(=O)[C@@H](Cc1c[nH]c2ccccc12)NC(=S)Nc1cc(C(F)(F)F)cc(C(F)(F)F)c1	2.15 µM	6.94 µM

SMILES	GI50	TGI
CNCCOC(=O)/C=C1/CCC2C(C(O)CC3C(C)(C(=O)OC)CCCC23C)C1C (stereo not given)	0.0377 µM	0.148 µM
Cc1cc(NC(=O)NC(=O)c2ccccc2NC(=O)CN)ccc1Oc1ncc(Br)cn1	0.065 µM	36.8 µM
Oc1ccc(CN(Cc2ccc(C(F)(F)F)cc2)Cc2ccc(O)c3ncccc23)c2cccnc12	0.0236 µM	2.23 µM
COc1ccc(-c2ccccc2)cc1-c1c(Nc2cc(Cl)cc(Cl)c2O)c(=O)c1=O	1.13 µM	3.91 µM
Nc1ccc(-n2c(=O)oc3ccc(Cl)cc3c2=O)c(Cl)c1	0.0903 µM	0.383 µM
COc1ccc(-c2cc(-c3nnc(SCC(=O)Nc4ccc(C(C)=O)cc4)o3)c3ccccc3n2)cc1	> 100 µM	> 100 µM
Cc1cc2nc3c4cccc(O)c4n(CCN(C)C)c3nc2cc1C	2.56 µM	8.19 µM
COc1ccc(-c2csc3c2-n2cccc2C3=O)cc1O	0.397 µM	2.43 µM
COc1cc(-c2n/c(=C\c3c(O)[nH]c4ccccc34)cc3c2=Nc2ccccc2-3)cc(OC)c1OC	2.57 µM	7.74 µM
O=[N+]([O-])/C=C/c1ccc([N+](=O)[O-])cc1	1.51 µM	3.3 µM
Cc1ccccc1C(C(=O)NC1CCCCC1)N(C(=O)Cn1ccnc1C)c1cccc(F)c1 (stereo not given)	> 100 µM	> 100 µM
Cc1ccc(-c2cc3nc(C(Cl)Cl)nc(-c4ccco4)n3n2)cc1	0.566 µM	3.05 µM
O=[N+]([O-])c1cccc(-c2cc(-c3cc(Br)ccc3O)[nH]n2)c1	1.47 µM	21.1 µM
O=C(Nc1cccc(-n2ccc3c(NC(=O)c4ccccc4)nccc32)c1)c1cc(N2CCOCC2)cc(C(F)(F)F)c1	0.0484 µM	1.42 µM
O=C(/C=C\c1ccc2ccccc2n1)c1cc(Cl)ccc1O	5.1 µM	19.7 µM
Cc1ccc(Oc2nc3ccccc3cc2-c2nnc(Cn3c(COc4ccccc4)nc4ccccc43)o2)cc1	3.95 µM	18.3 µM
COc1cc(OC)cc(-c2cncn2-c2ccc(-c3nc4cc(OC)cc(OC)c4s3)cc2)c1	3.17 µM	> 100 µM
Cc1ccc(C[P+](c2ccccc2)(c2ccccc2)c2ccccc2)cc1	0.172 µM	1.19 µM
COc1ccc(/C=C\c2cc(OC)c(OC)c(OC)c2)cc1OCC(=O)Nc1nc2ccc(OC(F)(F)F)cc2s1	2.3 µM	6.88 µM
CCN1CCC(CC(=O)Nc2n[nH]c3nc(-c4cccs4)c(Br)cc23)CC1	4.53 µM	10.8 µM
